Laboratory results from PubChem BioAssay AID624491 (Broad Institute, 2012).
Activity calls are given as the source filed them.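 The calls were made as follows: active = fitted curve crossing a set activation limit at or below the highest valid dose tested; inconclusive = flat fit at 30 to 70% activation, or poor fit; inactive = the rest, including signal decreases.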

test system: D54 ERlucT glycosylation luciferase reporter, luminescence, 24 h; experiment: N-linked glycosylation inhibitors, luciferase reporter, dose response, D54 ERlucT cells, luminescence, cherry-picks (AID 624491);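 also: signal gain reflects blocked N-linked glycosylation of a luciferase reporter; actives raise luciferase signal so AC26 marks activators of the reporter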

Point of comparison: `COc1ccc(-c2nc3c(s2)CCc2onc(-c4ccc(OC)cc4)c2-3)cc1`, AC26 14400 nM. Against it:
- O=C(NCCCn1ccnc1)c1cc(-c2ccccc2)on1 — 4.5-fold lower, 3170 nM
- COc1cc2c(cc1OC)C(c1cccs1)N(C(=S)NC(C)C)CC2 (stereo not drawn) — 57-fold lower, 252 nM
- c1ccc(CNc2nc(-c3ccccc3)nc3ccccc23)cc1 — 9.2-fold lower, 1570 nM
- O=C(Nc1ccc2oc(-c3cccnc3)nc2c1)c1ccc([N+](=O)[O-])o1 — 13-fold lower, 1130 nM
- CCOC(=O)N1CCc2cc(OC)c(OC)c3c2c1cc1cc(OC)c(OC)cc13 — within 1.5-fold, 11100 nM
- Cc1cc(C)cc(NC(=O)CCn2c(=O)c3cccn3c3ccccc32)c1 — 2.9-fold lower, 4950 nM
- COC(=O)c1cc(OC)c(OC)cc1NC(=S)NC(=O)c1ccco1 — 24-fold lower, 607 nM
- COC(=O)c1ccccc1-c1ccc(C(c2c(C)[nH][nH]c2=O)c2c(C)[nH][nH]c2=O)o1 — 2.4-fold lower, 5960 nM
- CCC(c1nc2ccccc2c(=O)n1-c1nc2ccccc2s1)N1C(=O)c2ccccc2C1=O (stereo not drawn) — 14-fold lower, 1030 nM
- O=C1CCCN1c1ccc(S(=O)(=O)Nc2ccc3c(c2)OCCO3)cc1 — within 1.5-fold, 9890 nM
- COc1ccc2c(c1)OC[C@H]1[C@H]2N2C(=O)c3cc(Br)ccc3NC(=O)[C@@]2(C)[C@H]1c1ccccc1 — 15-fold lower, 976 nM
- O=C(c1cccc(Oc2ccccc2)c1)N1CCN(c2ccccn2)CC1 — 6.6-fold lower, 2190 nM
- COCCOC(=O)c1[nH]c2c(c1C)C(=O)CC(c1cccs1)C2 (stereo not drawn) — 10-fold lower, 1380 nM
- CCCCC[C@H](O)/C=C/[C@@H]1[C@@H](C/C=C\CCCC(=O)OC)[C@@H](O)C[C@H]1O — 1400-fold lower, 10.5 nM
- Cn1nc(C(=O)Nc2cccc(S(=O)(=O)N3CCCC3)c2)c2ccccc2c1=O — 22-fold lower, 666 nM
- CCCc1cc(C(=O)N/N=C/c2ccc(C)o2)c2ccccc2n1 — 14-fold lower, 1040 nM
- CCOC(=O)C(CC)(CC)C(=O)/C=C/c1cccc(Br)c1 — 28-fold lower, 517 nM
- CCn1c(=O)c2cc(C(=O)NCCCOC)sc2c2ccccc21 — 5.9-fold lower, 2460 nM
- CC(=O)c1ccc(N2CCN(C(=O)c3cccc(Oc4ccccc4)c3)CC2)cc1 — 13-fold lower, 1140 nM
- CCN(CC)c1ccc(NC(=O)CC2Oc3ccccc3NC2=O)c(C)c1 (stereo not drawn) — within 1.5-fold, 11600 nM
- O=C(N/N=C/c1ccc(Cl)cc1)c1cc(-c2cccnc2)nc2ccccc12 — 35-fold lower, 417 nM
- CCOC(=O)c1ccc(/C=C2/C=C(c3ccccc3)N(c3ccc(Cl)c(C(=O)O)c3)C2=O)cc1 — 7.8-fold lower, 1840 nM
- O=C(N/N=C/c1ccco1)c1ccccc1OCc1ccccc1Cl — 14-fold lower, 1010 nM
- CCOCCCNC(=O)c1cc2c(=O)n(CC)c3ccccc3c2s1 — 1.7-fold lower, 8290 nM
- Cc1ccc(NC2=NC3(CCCC3)N=C(N)N2)c(C)c1 — 3.4-fold lower, 4230 nM
- COc1ccccc1-c1c(C#N)c(N)nc2c1CCc1ccccc1-2 — 24-fold lower, 592 nM
- Cc1ccc2c(c1)C(=O)N1[C@H]3c4cc(Br)ccc4OC[C@@H]3[C@H](c3ccccc3)[C@]1(C)C(=O)N2 — 21-fold lower, 689 nM
- C/C(=N\NC(=O)c1c([N+](=O)[O-])c(C)nn1C)c1ccc(NC(=O)C2CCCC2)cc1 — 29-fold lower, 498 nM
- Cc1cccc(N2CCN(C(=O)c3cc(S(=O)(=O)N4CCCC4)cn3C)CC2)c1C — 7-fold lower, 2050 nM
- COc1cc(-c2nc(-c3ccccc3)c(-c3cccs3)[nH]2)cc(OC)c1O — 2.4-fold lower, 6100 nM
- CC(C)n1cc(NC(=O)c2cc(-c3ccccc3)on2)cn1 — 12-fold lower, 1230 nM
- Cc1ccc2nc(/C(C#N)=C/c3cn[nH]c3-c3ccc(F)cc3)[nH]c2c1 — 12-fold lower, 1170 nM
- CCOc1ccc(OCC(=O)N(CCC2=CCCCC2)c2c(N)n(Cc3ccccc3)c(=O)[nH]c2=O)cc1 — 3.3-fold lower, 4380 nM
- Cn1c(=O)n(C)c2cc(NS(=O)(=O)c3ccccc3)ccc21 — 4.2-fold lower, 3430 nM
- O=C(/C=C/c1cccc(Br)c1)c1ccc2c(c1)OCO2 — 1.9-fold lower, 7470 nM
- C[C@H](CO)N1C[C@H](C)[C@@H](CN(C)S(=O)(=O)c2ccccc2)Oc2c(NC(=O)Cc3ccccc3)cccc2C1=O — 4.2-fold lower, 3400 nM
- COc1ccc(Nc2nc(-c3c(C)nc4ncccn34)cs2)cc1 — 840-fold lower, 17.2 nM
- Cn1c(C(=O)OCC(=O)NCc2ccc(F)cc2)cc2occc21 — 1.6-fold lower, 8970 nM
- COc1cc(-c2nccc3cc4c(cc23)OCO4)cc(OC)c1OC — 9.7-fold lower, 1490 nM
- CC1(C(=O)NCCc2ccccc2)Cc2c(-c3ccc4c(c3)OCO4)ccnc2O1 (stereo not drawn) — 4.6-fold lower, 3160 nM
- Cc1ccc(C(=O)/C=C/c2ccc(Br)cc2)o1 — within 1.5-fold, 16600 nM
- COc1cc2[nH]c(C(=O)Nc3ccc(F)cc3)cc2c(OC)c1OC — 19-fold lower, 742 nM
- CO/N=C\CC(=O)Nc1ccc(Cl)cc1Cl — 13-fold lower, 1070 nM
- O=C(Nc1ccc(-c2nc3cc(NC(=O)c4cccs4)ccc3o2)cc1)c1cccs1 — 3.3-fold lower, 4310 nM
- OCCNc1c2ccccc2nc2ccccc12 — 16-fold lower, 907 nM
- COc1cc(OC)cc(C(=O)NCC(=O)Nc2ccc(-c3ccccc3)cc2)c1 — 1.6-fold lower, 8830 nM
- COc1ccc(S(=O)(=O)Nc2ccc3c(c2)n(C)c(=O)n3C)cc1C — within 1.5-fold, 9910 nM
- CC(=O)c1ccc(Nc2nc(-c3sc(C)nc3C)cs2)cc1 — 360-fold lower, 40.5 nM
- Fc1ccc(CSc2ccc3nnc(-c4cccnc4)n3n2)cc1 — 36-fold lower, 403 nM
- COc1cc(-c2cc3nc(NCCc4ccncc4)ccn3n2)cc(OC)c1OC — 18-fold lower, 798 nM
- Cc1ccc2nc(-c3ccncc3)cc(C(=O)Nc3ccncc3)c2c1 — 4.7-fold lower, 3050 nM
- CC(=O)c1cccc(Nc2cc(C)nc3c(C)cccc23)c1 — 2.5-fold lower, 5870 nM
- O=C(NCCc1ccccc1)c1coc(=O)c(Br)c1 — 9.4-fold lower, 1530 nM
- CN(C)/N=C/c1ccc(Sc2ccc([N+](=O)[O-])cc2[N+](=O)[O-])o1 — 7.7-fold lower, 1880 nM
- COc1ccc2c(c1)OC[C@H]1[C@H]2N2C(=O)c3ccc(F)cc3NC(=O)[C@@]2(C)[C@H]1c1ccccc1 — 12-fold lower, 1230 nM
- CN1CCN(C(c2ccc(Cl)cc2)c2cc(Cl)c3cccnc3c2O)CC1 (stereo not drawn) — 3.6-fold lower, 4040 nM
- CC(=O)OC12COC1CC(O)C1(C)C(=O)C(O)C3=C(C)C(O)CC(O)(C(OC(=O)c4ccccc4)C21)C3(C)C (stereo not drawn) — 13-fold lower, 1120 nM
- CCCCCC(O)C=CC1C(O)CC(O)C1CC=CCCCC(=O)O (stereo not drawn) — 1800-fold lower, 7.83 nM
- Cc1ccc2c(c1)C(=O)N1[C@H]3c4cc(C)ccc4OC[C@@H]3[C@H](c3ccccc3)[C@]1(C)C(=O)N2 — 550-fold lower, 26.4 nM
- Cn1cc(C(=O)N/N=C/C(Br)=C/c2ccccc2)ccc1=O — 5.1-fold lower, 2850 nM
- O=C1Cc2c([nH]c3ccc(Br)cc23)-c2ccccc2N1 — 41-fold lower, 351 nM
- C[C@@]12C(=O)Nc3cc(F)ccc3C(=O)N1[C@H]1c3ccccc3OC[C@@H]1[C@@H]2c1ccccc1 — 7.7-fold lower, 1870 nM
- Cc1cccc(NC(=O)c2cnn3ccccc23)c1C — 1.5-fold lower, 9570 nM
- CCOC(=O)C(C)Oc1cccc2c(=O)n(CC(=O)NCc3ccco3)ccc12 (stereo not drawn) — 10-fold lower, 1380 nM
- CC(=O)c1c(C)[nH]c(C(=O)Nc2nccs2)c1C — 6.5-fold lower, 2200 nM
- Cc1ccc(S(=O)(=O)Nc2ccc3c(c2)n(C)c(=O)n3C)cc1 — 9.9-fold lower, 1460 nM
- CC(=O)Nc1sc(C)c(C)c1C(=O)OCC(=O)Nc1ccccc1 — 3-fold lower, 4780 nM
- O=C(/C=C/c1c[nH]c2ccccc12)c1cccc2ccccc12 — 2.7-fold lower, 5410 nM
- Cc1ccc(-c2cc(C(=O)Nc3ccncc3)c3ccccc3n2)cc1 — 7.5-fold lower, 1910 nM
- O=C(C[C@@H]1C/C=C/CC[C@H](Cc2ccc(F)cc2)C(=O)OC[C@@H](Cc2ccccc2)NC1=O)N[C@H](CO)Cc1ccccc1 — 3-fold lower, 4880 nM
- CC(C)(C)S(=O)(=O)N1C[C@@H]2CC/C=C\C/C(c3ccccc3)=C\2[C@H]1CCO — 14-fold lower, 1050 nM
- COc1c(Br)cc(Br)cc1/C=N/NC(=O)c1cccnc1 — within 1.5-fold, 10200 nM
- Cc1[nH][nH]c(=O)c1C(c1ccc(-c2ccc(Cl)c(Cl)c2)o1)c1c(C)[nH][nH]c1=O — 16-fold lower, 917 nM
- CC1=CC(C)[C@H](/C=N/n2c(=O)[nH]c3c([nH]c4ccc(C)cc43)c2=O)C(C)C1 (stereo partly drawn) — 3.6-fold lower, 4040 nM
- COc1cc(-c2cc(OC)c(O)c(OC)c2)cc(OC)c1O — 4-fold lower, 3600 nM
- COc1ccc(/C=N\NC(=O)c2sccc2C)cc1Cn1nc(C)cc1C — 28-fold lower, 507 nM
- COc1cc(N)ccc1Nc1c2ccccc2nc2ccccc12 — 210-fold lower, 70 nM
- CC1(C(=O)Nc2ccc(Cl)cc2)Cc2c(-c3cccc(C(N)=O)c3)ccnc2O1 (stereo not drawn) — within 1.5-fold, 15400 nM
- COC(=O)c1cc(=O)n(-c2ccccc2)c(=Nc2ccccc2)s1 — within 1.5-fold, 10800 nM
- Cc1ccc(C(=O)Nc2ccccc2C(=O)N2CC(C)OC(C)C2)cc1 (stereo not drawn) — 11-fold lower, 1330 nM
- Cn1c(=O)[nH]c(=O)c2c1nc(N(CCO)Cc1ccccc1)n2CCCc1ccccc1 — 18-fold lower, 800 nM
- Cc1cccc(C)c1OCCNC(=O)C(=O)NCc1ccco1 — 8.4-fold lower, 1710 nM
- C=CCOc1ccc(C(=O)Nc2ccccc2C(=O)NCc2cccnc2)cc1 — 6.7-fold lower, 2160 nM
- CCOc1cc(N2CCOCC2)c(OCC)cc1NC(=O)c1[nH]c(C)c(C(C)=O)c1C — 8.9-fold lower, 1620 nM
- Cn1c(=O)c([N+](=O)[O-])c(-n2ccnc2)c2ccccc21 — 3.5-fold lower, 4170 nM
- COC(=O)C(=Cc1ccc(-c2ccsc2C(=O)OC)o1)C(=O)OC — within 1.5-fold, 9800 nM
- Cc1c(C(=O)N/N=C/c2cccnc2)sc(N)c1C#N — 7.2-fold lower, 2000 nM
- CN(Cc1ccccc1)c1nc2c(c(=O)n(C)c(=O)n2C)n1CCCc1ccccc1 — 15-fold lower, 981 nM
- NNC(=O)c1nc(-c2ccccc2)cc(-c2ccccc2)n1 — 6.2-fold lower, 2320 nM
- CCOC(=O)c1[nH]c(C)c(C(=O)Nc2cc(OC)ccc2OC)c1C — 45-fold lower, 322 nM
- Cc1cc(-n2c(C)cc(C(=O)CCl)c2C)no1 — 6.7-fold lower, 2160 nM
- COc1ccc(S(=O)(=O)N2CCCOC2CNC(=O)C(=O)NCCc2ccco2)cc1C (stereo not drawn) — 1.5-fold lower, 9490 nM
- C#CC[N+](C)(C)CCCCCCCCC — 2.4-fold lower, 6070 nM
- Cn1nc(C(F)(F)F)c(/C=N/OC(=O)c2ccccc2Cl)c1SCc1ccc(Cl)cc1 — 3.7-fold lower, 3940 nM
- Cc1noc(C)c1-c1ccc(C(=O)NCCc2ccccc2)c2occc12 — 3.3-fold lower, 4410 nM
- O=C(/C=C/Sc1ccccc1)c1ccc(Cl)cc1 — 20-fold lower, 727 nM
- O=c1c2c3c(sc2ncn1/N=C/c1ccc([N+](=O)[O-])o1)CCCC3 — 32-fold lower, 447 nM
- O=C(COc1ccccc1)Nc1cccc(-c2cn3cccnc3n2)c1 — 2.4-fold lower, 5880 nM
- COc1ccccc1N1CCN(S(=O)(=O)CCNC(=O)c2cc(OC)c(OC)c(OC)c2)CC1 — 3.7-fold lower, 3850 nM
- Cc1ccc(Cl)cc1N1CCN(S(=O)(=O)c2ccc(-c3ccc(=O)[nH]n3)o2)CC1 — 2.8-fold lower, 5210 nM
- Cc1ccc(Oc2ccc(S(=O)(=O)N3CCOCC3)cc2C(N)=O)c(-n2nc3ccccc3n2)c1 — 5.2-fold lower, 2770 nM
- Cn1c(=O)c2cc(NC(=O)CCc3ccccc3)ccc2n1-c1ccccc1F — 8.1-fold lower, 1780 nM
- COC(=O)c1c(C)[nH]c(C(=O)/C=C/c2cccc(Cl)c2)c1C — 6-fold lower, 2410 nM
- COc1ccc(S(=O)(=O)NCc2ccccn2)cc1NC(=O)c1ccccc1 — 62-fold lower, 234 nM
- COc1cc2c3c(cccc3c1)C(=O)N(CCN1CCCC1)C2=O — 72-fold lower, 200 nM
- Cn1c(-c2ccccc2)c(/C=N/NC(=O)c2cccnc2)c2ccccc21 — 58-fold lower, 247 nM

With `Cc1cc(N2CCCCC2)nc(NCc2ccccc2)n1` the AC26 was > 19500 nM (inactive).
